Where “and” joins values, the source holds several entries; their conditions need not be identical. Identical values can stand only once. Marks after values point to notes of the source that are not given here.
How the values were obtained:
[1] = Single-dose oral pharmacokinetics of CBD oil in beagles; format: in vivo, dogs; settings: industrial hemp
Method: The dogs were fed two hours after dosing. […] Attitude, behavior, proprioception, and gait were subjectively evaluated at each time point during free running/walking and navigation around standard traffic cones (weaving). […] Blood samples were obtained via jugular venipuncture and transferred to a coagulation tube for 20 minutes. Samples were centrifuged (VWR, Clinical Centrifuge) at 3,600×g for 10 minutes; serum was removed and stored at −80° C. until analysis using liquid chromatography-mass spectrometry (LC-MS) at Colorado State University Core Mass Spectrometry facility.
CBD was extracted from canine serum using a combination of protein precipitation and liquid-liquid extraction using n-hexane, with minor modifications for microflow ultra-high pressure liquid chromatography (UHPLC). Briefly, 0.05 ml of canine serum was subjected to protein precipitation in the presence of ice-cold acetonitrile (80% final concentration), spiked with deuterated CBD as the internal standard (0.06 mg/ml, CDB-d3 Cerilliant, Round Rock, Tex., USA). 0.2 ml of water was added to each sample prior to the addition of 1.0 ml of hexane to enhance liquid-liquid phase separation. Hexane extract was removed and concentrated to dryness under laboratory nitrogen. Prior to LC-MS analysis, samples were resuspended in 0.06 mL of 100% acetonitrile. A standard curve using the CBD analytical standard was prepared in canine serum non-exposed to CBD and extracted as above.
From the UHPLC-QQQ-MS data, peak areas were extracted for CBD detected in biological samples and normalized to the peak area of the internal standard CBD-d3, in each sample using Skyline as well as an in-house R Script (www.r-project.org). […] Pharmacokinetic variables were estimated by means of non-compartmental analysis, utilizing a pharmacokinetic software package (PK Solution, version 2.0, Montrose, Colo., USA).

[2] = Feline serum cannabidiol quantification and pharmacokinetics (LC-MS/MS); format: in vivo, cats; settings: for Cannabidiol in serum: individual cats, replicates A/B, ppb = ng/mL, LOD 1.9, LOQ 6.2
Method: On the first day of dosing, blood was collected for a PK analysis from 6 of the 8 cats. The most cooperative cats were selected for the PK analysis. […] Samples were placed into a red top clotting tube with no serum separator. […] The harvested serum was placed in cyrovials stored at −70° C. Each tube was labeled with the cat id, date of collection and collection time point. Samples were shipped overnight on dry ice to the Proteomics & Metabolomics Facility at Colorado State University.
Aliquots of feline serum were delivered to the facility on dry ice and stored at −80° C. upon receipt. […] of cold (−20C.) 100% Acetonitrile (spiked with 60 ng/mL of d3-CBD) was added to each sample and vortexed at room temperature for 5 minutes. 200 μL of water was added and vortexed for an additional 5 minutes. 1 ml of 100% hexane was then added to each sample and vortexed for a final 5 minutes. […] The upper hexane layer was transferred to new-labeled glass vials (˜900 uL per sample), carefully avoiding the middle and lower layers.
An 8 point standard curve of CBD was generated in matrix background using a blank serum. Concentrations ranged from 0 ng/mL 1000 ng/mL (3.2X dilution series). 50 uL of each spiked serum sample was extracted as above.
LC-MS/MS was performed on a Waters Acquity M-Class UPLC coupled to a Waters Xevo TQ-S triple quadrupole mass spectrometer. […] Flow rate was 3.0 μL/min and injection volume was 2.0 μL. Samples were held at 6° C. in the autosampler, and the column was operated at 70° C. The MS was operated in selected reaction monitoring (SRM) mode, where a parent ion is selected by the first quadrupole, fragmented in the collision cell, then a fragment ion selected for by the third quadrupole. Product ions, collision energies, and cone voltages were optimized for each analyte by direct injection of individual synthetic standards. Inter-channel delay was set to 3 ms. The MS was operated in positive ionization mode with the capillary voltage set to 3.6 kV. […] Desolvation gas flow was […], cone gas flow was 150 L/hr, and collision gas flow was 0.2 mL/min. Nebulizer pressure (nitrogen) was set to 7 Bar. Argon was used as the collision gas.
Each target analyte was visually inspected for retention time and peak area integration. Peak areas were extracted for target compounds detected in biological samples and normalized to the peak area of the appropriate internal standard in each sample using in-house R Script (TQS-tools). CBD concentrations were calculated in nanograms per milliliter of extract (0.06 mL) and then back calculated to nanograms per mL of serum (0.05 mL of serum).
LOD are calculated based on the standard deviation of the response (Sy) of the 0 point calibration standard (i.e. 0 ng/mL CBD as an estimate on noise) and the slope of the calibration curve (S) at levels approximating the LOD according to the formula: LOD=3*(Sy/S). LOQ=10*(Sy/S).

Q: What does the source list for `C=C(C)[C@@H]1CCC(C)=C[C@H]1c1c(O)cc(CCCCC)cc1O` [cannabidiol]?
A: Average retention time ([1]; dosing at 2 mg/kg): 6 h; Peak concentration ([1]; dosing at 2 mg/kg, average 20 mg total dose): approximately 100 ug/kg; Total absorption ([1]; oral dosing at 2 mg/kg): less than 20%; Cannabidiol in serum ([2]; 60 min after CBD oil 2 mg/kg oral): 24.44 ppb and 26.32 ppb and 44.14 ppb and 45.40 ppb and 28.10 ppb and 31.02 ppb and 378.59 ppb and 535.08 ppb and 32.85 ppb and 34.26 ppb; Cannabidiol in serum ([2]; 4 hr after CBD oil 2 mg/kg oral): 1.69** ppb and 1.82** ppb and 1.53** ppb and 51.48 ppb and 68.31 ppb; Cannabidiol in serum ([2]; 8 hr after CBD oil 2 mg/kg oral): 65.42 ppb and 79.30 ppb and 1.82** ppb and 2.22* ppb and 44.23 ppb and 46.05 ppb and 365.18 ppb and 376.28 ppb and 71.64 ppb and 79.59 ppb; Cannabidiol in serum ([2]; 24 hr after CBD oil 2 mg/kg oral): 42.76 ppb and 44.88 ppb and 141.92 ppb and 147.74 ppb and 10.28 ppb and 10.31 ppb and 13.95 ppb and 17.17 ppb and 0.18** ppb and 0.36** ppb and 33.12 ppb and 35.88 ppb; AUC(0-t) ([2]; serum, po, 2 mg/kg): 0.154 µg·h/mL

From patent US20230090094A1, “HEMP EXTRACT FOR TREATMENT OF PAIN, CANCER AND EPILEPSY IN ANIMALS” (ElleVet Sciences, priority 2019, published 2023)
